O=C(O)c1cccnc1
Conditions	solubility (mole fraction)
in DMSO, 293.56 K	0.0597
in DMSO, 303.38 K	0.074
in DMSO, 313.07 K	0.0911
in DMSO, 322.84 K	0.109
in DMSO, 332.36 K	0.131
in acetone, 285.46 K	0.000733
in acetone, 292.26 K	0.00114
in acetone, 296.8 K	0.00137
in acetone, 302.14 K	0.00161
in acetone, 307.1 K	0.00231
in acetone, 317.11 K	0.00318
in acetonitrile, 283.3 K	7.12e-05
in acetonitrile, 288.51 K	0.00012
in acetonitrile, 293.01 K	0.00017
in acetonitrile, 297.58 K	0.000185
in acetonitrile, 302.63 K	0.000268
in acetonitrile, 306.91 K	0.000354
in acetonitrile, 312.49 K	0.000475
in acetonitrile, 316.21 K	0.000547
in acetonitrile, 322.45 K	0.000715
in acetonitrile, 332.32 K	0.00107
in diethyl ether, 283.45 K	0.000322
in diethyl ether, 285.74 K	0.000379
in diethyl ether, 290.57 K	0.000539
in diethyl ether, 294.02 K	0.000618
in diethyl ether, 298.66 K	0.000813
in ethanol, 283.38 K	0.00224
in ethanol, 293.46 K	0.00309
in ethanol, 303.15 K	0.00423
in ethanol, 312.83 K	0.00605
in ethanol, 322.64 K	0.00843
in ethanol, 332.43 K	0.0115
in water, 283.59 K	0.00172
in water, 293.41 K	0.00218
in water, 303.03 K	0.00281
in water, 312.49 K	0.00475
in water, 312.97 K	0.00365
in water, 316.21 K	0.00547
in water, 322.45 K	0.00715
in water, 322.83 K	0.00465
in water, 332.01 K	0.00586
in water, 332.32 K	0.0107

Reference: BigSolDB 2.1
